Read-outs that look alike come from different tables or passages of the source.

One test addresses T1, human EP3 receptor (Homo sapiens, UniProt P43115).
T1 construct: expressed in transfected cells
T1 sequence (P43115 1-390): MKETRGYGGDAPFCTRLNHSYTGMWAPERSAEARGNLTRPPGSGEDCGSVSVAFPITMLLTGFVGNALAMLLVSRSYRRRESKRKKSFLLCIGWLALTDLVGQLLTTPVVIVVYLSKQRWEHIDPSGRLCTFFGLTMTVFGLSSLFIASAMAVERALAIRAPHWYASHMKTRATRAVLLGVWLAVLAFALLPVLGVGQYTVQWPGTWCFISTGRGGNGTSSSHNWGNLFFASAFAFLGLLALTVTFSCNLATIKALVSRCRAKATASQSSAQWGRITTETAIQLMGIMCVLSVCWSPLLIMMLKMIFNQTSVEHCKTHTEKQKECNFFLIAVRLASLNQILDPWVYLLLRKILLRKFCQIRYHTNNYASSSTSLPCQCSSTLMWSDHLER
The experiment in a line: Binding ability to human EP receptors ([3H]PGE2 displacement), EP3. Conditions: membranes expressing human EP3; [3H]PGE2 2.5 nM; Cheng-Prusoff; read-out: pKi (M) EP3 (converted). The essentials: (§1)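 Membranes from cells stably expressing human EP2, EP3 or EP4 incubated to equilibrium with [3H]PGE2 and compound at 0.1 to 10 000 nM. Non-specific binding defined with 10 uM PGE2; bound label separated by vacuum filtration and quantified by scintillation counting.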

Another test concerns the target T2, human EP4 receptor (Homo sapiens, UniProt P35408).
T2 construct: expressed in transfected cells
Briefly: Binding ability to human EP receptors ([3H]PGE2 displacement), EP4. The settings on record: membranes expressing human EP4; [3H]PGE2 1 nM; Cheng-Prusoff; read-out: pKi (M) EP4 (converted). The essentials: as §1

A further test addresses T3, human EP2 receptor (Homo sapiens, UniProt P43116).
T3 construct: expressed in transfected cells
Briefly: Binding ability to human EP receptors ([3H]PGE2 displacement), EP2. The essentials: as §1

For test [1], the target named is T4, human EP2 prostanoid receptors (Homo sapiens, UniProt P43116).
T4 construct: expressed in transfected cells; host or cells: HEK-293
The experiment in a line: Agonist activity at recombinant human EP2 prostanoid receptors (cAMP in HEK-293 clones). In kind it is cell-based. Conditions: for activity (EP2 part): functional classification at EP2.

[2] abbreviates: membranes expressing human EP2, [3H]PGE2 3 nM, Cheng-Prusoff, read-out: pKi (M) EP2 (converted).
Setting [3] is: HEK-293 stably transfected with human EP2, cAMP accumulation, read-out: pEC50 EP2 (converted).

T4 sequence (P43116 whole entry): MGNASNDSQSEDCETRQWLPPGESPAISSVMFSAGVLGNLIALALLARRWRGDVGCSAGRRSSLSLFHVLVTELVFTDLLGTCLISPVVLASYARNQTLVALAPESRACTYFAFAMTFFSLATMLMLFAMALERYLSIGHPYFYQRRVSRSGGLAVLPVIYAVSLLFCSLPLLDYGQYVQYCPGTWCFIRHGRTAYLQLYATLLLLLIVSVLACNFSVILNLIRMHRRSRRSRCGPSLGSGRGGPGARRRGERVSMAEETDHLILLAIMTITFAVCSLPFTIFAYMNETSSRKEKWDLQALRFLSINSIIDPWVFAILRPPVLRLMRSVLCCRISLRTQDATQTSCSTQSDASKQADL
T3 sequence (P43116 whole entry): as above
T2 sequence (P35408 whole entry): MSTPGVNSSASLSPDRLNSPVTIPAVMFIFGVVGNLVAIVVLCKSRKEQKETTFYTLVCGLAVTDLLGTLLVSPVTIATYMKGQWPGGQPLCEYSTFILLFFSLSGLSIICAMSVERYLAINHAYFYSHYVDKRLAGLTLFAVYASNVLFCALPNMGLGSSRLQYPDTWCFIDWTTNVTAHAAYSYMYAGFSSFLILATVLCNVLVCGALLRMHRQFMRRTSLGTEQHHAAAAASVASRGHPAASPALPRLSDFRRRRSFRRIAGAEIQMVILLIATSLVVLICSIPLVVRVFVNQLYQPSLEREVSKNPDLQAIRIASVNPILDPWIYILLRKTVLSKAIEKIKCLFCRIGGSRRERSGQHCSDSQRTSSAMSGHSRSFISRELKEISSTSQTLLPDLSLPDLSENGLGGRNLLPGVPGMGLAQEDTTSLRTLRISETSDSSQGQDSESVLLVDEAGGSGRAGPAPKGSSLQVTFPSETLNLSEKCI

As to `O=C(O)/C=C/c1cccc(NC(=O)c2csc(-c3cccc(F)c3)n2)c1` [Compound 116, 3-(3-{[2-(3-Fluoro-phenyl)-thiazole-4-carbonyl]-amino}-phenyl)-acrylic acid], the Ki was greater than 1e-05 M at human EP3 receptor, greater than 1e-05 M at human EP4 receptor and less than 1e-07 M at human EP2 receptor (setting [2]). For the same compound, the EC50 in test [1] (setting [3]) was less than 0.1 µM. Further, the “activity (EP2 part)” value in test [1] is recorded as “EP2 Agonist”.
Turning to `O=C(O)Cc1cccc(C(=O)Nc2cccc(-c3ccccc3)c2)c1` [Compound 117, [3-(Biphenyl-3-ylcarbamoyl)-phenyl]-acetic acid], the Ki on human EP3 receptor was greater than 1e-05 M; on human EP4 receptor, greater than 1e-05 M; on human EP2 receptor (setting [2]), less than 1e-06 M. Also, in test [1] (setting [3]), the EC50 is less than 10 µM. Also, in test [1], the “activity (EP2 part)” value is “EP2 Agonist”.
On to `Cn1c(C(=O)O)cc2cc(NC(=O)c3ccc(-c4ccccc4)o3)ccc21` [Compound 118, 1-Methyl-5-[(5-phenyl-furan-2-carbonyl)-amino]-1H-indole-2-carboxylic acid], for which the Ki is greater than 1e-05 M at human EP3 receptor, greater than 1e-05 M on human EP4 receptor and less than 1e-06 M on human EP2 receptor (setting [2]). The EC50 in test [1] (setting [3]) was less than 0.1 µM. In addition, the “activity (EP2 part)” value in test [1] is reported as “EP2 Agonist”.
For `O=C(O)/C=C/c1cccc(CC(=O)c2ccc(-c3ccccc3)o2)c1` [Compound 120, 3-{3-[2-Oxo-2-(5-phenyl-furan-2-yl)-ethyl]-phenyl}-acrylic acid], the Ki was greater than 1e-05 M on human EP3 receptor, greater than 1e-05 M on human EP4 receptor and less than 1e-05 M at human EP2 receptor (setting [2]). Further, in test [1] (setting [3]), the EC50 was less than 1 µM. The “activity (EP2 part)” value in test [1] is reported as “EP2 Agonist”.
Regarding `O=C(O)/C=C/c1cccc(OCc2csc(-c3ccccc3)n2)c1` [Compound 121, 3-[3-(2-Phenyl-thiazol-4-ylmethoxy)-phenyl]-acrylic acid], the Ki on human EP3 receptor is greater than 1e-05 M; on human EP4 receptor it was greater than 1e-05 M; on human EP2 receptor (setting [2]) it was less than 1e-06 M. In addition, the EC50 in test [1] (setting [3]) is less than 1 µM. The “activity (EP2 part)” value in test [1] was “EP2 Agonist”.
With `O=C(O)Cc1cccc(NC(=O)c2ccc(-c3cc(F)cc(F)c3)o2)c1` [Compound 127, (3-{[5-(3,5-Difluoro-phenyl)-furan-2-carbonyl]-amino}-phenyl)-acetic acid], the values for the Ki at human EP3 receptor, at human EP4 receptor and on human EP2 receptor (setting [2]) were greater than 1e-05 M, greater than 1e-05 M and less than 1e-07 M, respectively. In test [1] (setting [3]), the EC50 is less than 0.1 µM. In addition, the “activity (EP2 part)” value in test [1] is listed as “EP2 Agonist”.
For the compound `O=C(O)Cc1cccc(NC(=O)c2ccc(-c3cccc(F)c3)o2)c1` [Compound 128, (3-{[5-(3-fluoro-phenyl)-furan-2-carbonyl]-amino}-phenyl)-acetic acid], the Ki is greater than 1e-05 M at human EP3 receptor, greater than 1e-05 M at human EP4 receptor and less than 1e-06 M on human EP2 receptor (setting [2]). Also, the EC50 in test [1] (setting [3]) was less than 0.1 µM. In addition, the “activity (EP2 part)” value in test [1] is given as “EP2 Agonist”.
Consider `O=C(O)/C=C/c1cccc(NC(=O)c2cccc(-c3cc(Cl)cc(Cl)c3)n2)c1` [Compound 132, 3-(3-{[6-(3,5-Dichloro-phenyl)-pyridine-2-carbonyl]-amino}-phenyl)-acrylic acid], for which the Ki on human EP3 receptor is greater than 1e-05 M; at human EP4 receptor, greater than 1e-05 M; at human EP2 receptor (setting [2]), less than 1e-07 M. The EC50 in test [1] (setting [3]) is less than 0.1 µM. Moreover, in test [1], the “activity (EP2 part)” value is “EP2 Agonist”.
For `O=C(O)CCc1cccc(NC(=O)c2cccc(-c3cc(Cl)cc(Cl)c3)n2)c1` [Compound 134, 3-(3-{[6-(3,5-Dichloro-phenyl)-pyridine-2-carbonyl]-amino}-phenyl)-propionic acid], the figures for the Ki at human EP3 receptor, on human EP4 receptor and at human EP2 receptor (setting [2]) were greater than 1e-05 M, greater than 1e-05 M and less than 1e-07 M, respectively. Also, the EC50 in test [1] (setting [3]) is less than 0.1 µM. Also, the “activity (EP2 part)” value in test [1] is “EP2 Agonist”.
`O=C(Nc1ccc2[nH]c(C(=O)O)cc2c1)c1cccc(-c2cc(Cl)cc(Cl)c2)n1` [Compound 135, 5-{[6-(3,5-Dichloro-phenyl)-pyridine-2-carbonyl]-amino}-1H-indole-2-carboxylic acid]: the Ki on human EP3 receptor is greater than 1e-05 M; at human EP4 receptor it was greater than 1e-05 M; at human EP2 receptor (setting [2]), less than 1e-06 M. Moreover, the EC50 in test [1] (setting [3]) was less than 1 µM. Besides, the “activity (EP2 part)” value in test [1] is reported as “EP2 Agonist”.
For `O=C(O)/C=C/c1cccc(NC(=O)c2cccc(-c3cccc(Cl)c3)n2)c1` [Compound 137, 3-(3-{[6-(3-Chloro-phenyl)-pyridine-2-carbonyl]-amino}-phenyl)-acrylic acid], the Ki on human EP3 receptor is greater than 1e-05 M; at human EP4 receptor, less than 1e-06 M; on human EP2 receptor, less than 1e-07 M. In test [1], the EC50 is less than 0.1 µM. Further, in test [1], the “activity (EP2 part)” value was “EP2 Agonist”.
With `O=C(O)COc1cccc(NC(=O)c2cc(-c3cccc(Cl)c3)ccc2F)c1` [Compound 140, {3-[(3′-Chloro-4-fluoro-biphenyl-3-carbonyl)-amino]-phenoxy}-acetic acid], the Ki at human EP3 receptor is greater than 1e-05 M; at human EP4 receptor, greater than 1e-05 M; at human EP2 receptor (setting [2]) it was less than 1e-07 M. For the same compound, the EC50 in test [1] (setting [3]) is less than 0.1 µM. Besides, in test [1], the “activity (EP2 part)” value is listed as “EP2 Agonist”.
Turning to `O=C(O)/C=C/c1cccc(NC(=O)c2cc(-c3cccc(Cl)c3)ccc2F)c1` [Compound 142, 3-{3-[(3′-Chloro-4-fluoro-biphenyl-3-carbonyl)-amino]-phenyl}-acrylic acid], the Ki was greater than 1e-05 M on human EP3 receptor, greater than 1e-05 M on human EP4 receptor and less than 1e-07 M at human EP2 receptor (setting [2]). Moreover, the EC50 in test [1] (setting [3]) is less than 0.1 µM. The “activity (EP2 part)” value in test [1] is “EP2 Agonist”.
Turning to `O=C(O)COc1cccc(NC(=O)c2cc(-c3cc(Cl)cc(Cl)c3)ccc2F)c1` [Compound 143, {3-[(3′,5′-Dichloro-4-fluoro-biphenyl-3-carbonyl)-amino]-phenoxy}-acetic acid], the Ki is greater than 1e-05 M on human EP3 receptor, greater than 1e-05 M on human EP4 receptor and less than 1e-07 M at human EP2 receptor (setting [2]). In test [1] (setting [3]), the EC50 was less than 0.1 µM. Moreover, the “activity (EP2 part)” value in test [1] is “EP2 Agonist”.
With `O=C(O)/C=C/c1cccc(NC(=O)c2ccc(-c3ccc(Cl)cc3)o2)c1` [Compound 146, 3-(3-{[5-(4-Chloro-phenyl)-furan-2-carbonyl]-amino}-phenyl)-acrylic acid], the Ki was greater than 1e-05 M at human EP3 receptor, greater than 1e-05 M on human EP4 receptor and less than 1e-07 M at human EP2 receptor (setting [2]). For the same compound, in test [1] (setting [3]), the EC50 was less than 0.1 µM. In addition, in test [1], the “activity (EP2 part)” value is given as “EP2 Agonist”.
Take `O=C(O)CCc1cccc(NC(=O)c2ccc(-c3ccc(Cl)cc3)o2)c1` [Compound 147, 3-(3-{[5-(4-Chloro-phenyl)-furan-2-carbonyl]-amino}-phenyl)-propionic acid]: the Ki on human EP3 receptor is greater than 1e-05 M; at human EP4 receptor, greater than 1e-05 M; on human EP2 receptor (setting [2]), less than 1e-07 M. Also, in test [1] (setting [3]), the EC50 was less than 0.1 µM. The “activity (EP2 part)” value in test [1] is on record as “EP2 Agonist”.
Consider `O=C(O)CCc1cccc(NC(=O)c2ccc(-c3ccc(F)cc3)o2)c1` [Compound 148, 3-(3-{[5-(4-Fluoro-phenyl)-furan-2-carbonyl]-amino}-phenyl)-propionic acid], for which the Ki is greater than 1e-05 M on human EP3 receptor, greater than 1e-05 M on human EP4 receptor and less than 1e-07 M on human EP2 receptor (setting [2]). Further, the EC50 in test [1] (setting [3]) was less than 0.1 µM. In addition, in test [1], the “activity (EP2 part)” value was “EP2 Agonist”.
For the compound `O=C(O)Cc1cccc(NC(=O)c2cccc(-c3ccc(Cl)cc3)n2)c1` [Compound 150, (3-{[6-(4-Chloro-phenyl)-pyridine-2-carbonyl]-amino}-phenyl)-acetic acid], the Ki on human EP3 receptor was greater than 1e-05 M; on human EP4 receptor, greater than 1e-05 M; on human EP2 receptor (setting [2]), less than 1e-06 M. Moreover, the EC50 in test [1] (setting [3]) was less than 1 µM. In addition, the “activity (EP2 part)” value in test [1] was “EP2 Agonist”.
For the compound `O=C(O)/C=C/c1cccc(NC(=O)c2cccc(-c3ccc(Cl)cc3)n2)c1` [Compound 151, 3-(3-{[6-(4-Chloro-phenyl)-pyridine-2-carbonyl]-amino}-phenyl)-acrylic acid], the Ki is greater than 1e-05 M at human EP3 receptor, greater than 1e-05 M at human EP4 receptor and less than 1e-07 M at human EP2 receptor (setting [2]). Moreover, in test [1] (setting [3]), the EC50 was less than 0.1 µM. Besides, the “activity (EP2 part)” value in test [1] is “EP2 Agonist”.
Turning to `O=C(O)Cc1cccc(NC(=O)c2cccc(-c3ccc(F)cc3)n2)c1` [Compound 153, (3-{[6-(4-Fluoro-phenyl)-pyridine-2-carbonyl]-amino}-phenyl)-acetic acid], the figures for the Ki at human EP3 receptor, on human EP4 receptor and at human EP2 receptor (setting [2]) were greater than 1e-05 M, greater than 1e-05 M and less than 1e-07 M, respectively. Moreover, the EC50 in test [1] (setting [3]) is less than 0.1 µM. Further, in test [1], the “activity (EP2 part)” value is recorded as “EP2 Agonist”.
`O=C(O)COc1cccc(NC(=O)c2cccc(-c3ccc(Cl)cc3)n2)c1` [Compound 154, (3-{[6-(4-Chloro-phenyl)-pyridine-2-carbonyl]-amino}-phenoxy)-acetic acid]: the results for the Ki on human EP3 receptor, at human EP4 receptor and on human EP2 receptor (setting [2]) were greater than 1e-05 M, greater than 1e-05 M and less than 1e-07 M, respectively. In test [1] (setting [3]), the EC50 is less than 0.1 µM. The “activity (EP2 part)” value in test [1] is recorded as “EP2 Agonist”.
